# According to patent publication US20060166189A1, “Methods for detecting invasion of a cell” (priority 2002, published 2006):
# System: HeLa cells
# Format: cell-based
substance,measurement,value
cytosine arabinose [Ara C],effect on β-galactosidase expression from vSC8 (late vaccinia promoter P11),completely blocked
